Biological target: CK2A1 (CK2α/β) (Homo sapiens, UniProt P68400)
Experiment: CK2 kinase assay, CK2A1 (CK2α/β)
Assay type: biochemical
Settings: Table A; read-out: CK2A1 (CK2α/β) (IC50)

Sequence of CK2A1 (CK2α/β) (P68400 whole entry, species assumed): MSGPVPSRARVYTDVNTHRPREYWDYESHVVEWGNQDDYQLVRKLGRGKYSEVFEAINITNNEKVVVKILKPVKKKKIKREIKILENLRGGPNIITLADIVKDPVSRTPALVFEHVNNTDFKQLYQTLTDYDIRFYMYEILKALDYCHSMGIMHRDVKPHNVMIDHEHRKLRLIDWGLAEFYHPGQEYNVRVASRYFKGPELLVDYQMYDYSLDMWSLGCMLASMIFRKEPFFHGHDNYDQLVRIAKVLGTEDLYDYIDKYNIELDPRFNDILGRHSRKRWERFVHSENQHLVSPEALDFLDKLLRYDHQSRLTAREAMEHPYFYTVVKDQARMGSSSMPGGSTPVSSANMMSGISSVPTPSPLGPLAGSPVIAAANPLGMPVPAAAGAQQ
Sequence of CK2A1 (CK2α/β) (P67870 whole entry partner, species assumed): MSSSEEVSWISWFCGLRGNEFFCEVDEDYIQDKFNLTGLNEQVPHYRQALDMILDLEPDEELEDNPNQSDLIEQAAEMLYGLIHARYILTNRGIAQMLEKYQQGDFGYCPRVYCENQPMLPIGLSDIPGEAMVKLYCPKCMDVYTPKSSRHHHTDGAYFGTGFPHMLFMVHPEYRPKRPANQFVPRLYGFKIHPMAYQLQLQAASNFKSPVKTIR

Row | Structure (SMILES) | IC50 [nM]
1 | N#Cc1cc(Nc2nc(NC3CC3)c3ncc(C#N)n3n2)c(Cl)c(N2CCN(CCO)CC2=O)c1 [Example 634, 2-((2-chloro-5-cyano-3-(4-(2-hydroxyethyl)-2-oxopiperazin-1-yl)phenyl)amino)-4-(cyclopropylamino)imidazo[2,1-f][1,2,4]triazine-7-carbonitrile] | 3
2 | CN1CCCN(c2cc(C#N)cc(Nc3nc(NC4CC4)c4ncc(C#N)n4n3)c2Cl)C(=O)C1 [Example 635, 2-((2-chloro-5-cyano-3-(4-methyl-2-oxo-1,4-diazepan-1-yl)phenyl)amino)-4-(cyclopropylamino)imidazo[2,1-f][1,2,4]triazine-7-carbonitrile] | 1.83
3 | CCN1CCN(c2cc(C#N)cc(Nc3nc(NC4CC4)c4ncc(C#N)n4n3)c2Cl)C(=O)C1 [Example 636, 2-((2-chloro-5-cyano-3-(4-ethyl-2-oxopiperazin-1-yl)phenyl)amino)-4-(cyclopropylamino)imidazo[2,1-f][1,2,4]triazine-7-carbonitrile] | 1
4 | CC(=O)N1CC(N2CCC(c3cc(C#N)cc(Nc4nc(NC5CC5)c5ncc(C#N)n5n4)c3F)CC2)C1 [Example 637, 2-((3-(1-(1-acetylazetidin-3-yl)piperidin-4-yl)-2-fluoro-5-cyanophenyl)amino)-4-(cyclopropylamino)imidazo[2,1-f][1,2,4]triazine-7-carbonitrile] | 4.79
5 | N#Cc1cc(Nc2nc(NC3CC3)c3ncc(C#N)n3n2)c(Cl)c(C2CCN(C3CN(C(=O)C(F)(F)F)C3)CC2)c1 [Example 638, 2-((2-chloro-5-cyano-3-(1-(1-(2,2,2-trifluoroacetyl)azetidin-3-yl)piperidin-4-yl)phenyl)amino)-4-(cyclopropylamino)imidazo[2,1-f][1,2,4]triazine-7-carbonitrile] | 0.8
6 | CC(C)(C(N)=O)N1CCC(c2cc(C#N)cc(Nc3nc(NC4CC4)c4ncc(C#N)n4n3)c2Cl)CC1 [Example 641, 2-(4-(2-chloro-5-cyano-3-((7-cyano-4-(cyclopropylamino)imidazo[2,1-f][1,2,4]triazin-2-yl)amino)phenyl)piperidin-1-yl)-2-methylpropanamide] | 4.01
7 | CNC(=O)CN1CCC(c2cc(C#N)cc(Nc3nc(NC4CC4)c4ncc(C#N)n4n3)c2Cl)CC1 [Example 642, 2-(4-(2-chloro-5-cyano-3-((7-cyano-4-(cyclopropylamino)imidazo[2,1-f][1,2,4]triazin-2-yl)amino)phenyl)piperidin-1-yl)-N-methylacetamide] | 0.76
8 | CC(C)(CO)N1CCC(c2cc(C#N)cc(Nc3nc(NC4CC4)c4ncc(C#N)n4n3)c2Cl)CC1 [Example 643, 2-((2-chloro-5-cyano-3-(1-(1-hydroxy-2-methylpropan-2-yl)piperidin-4-yl)phenyl)amino)-4-(cyclopropylamino)imidazo[2,1-f][1,2,4]triazine-7-carbonitrile] | 2.12
9 | N#Cc1cc(Nc2nc(NC3CC3)c3ncc(C#N)n3n2)c(Cl)c(C2CCN(C3CCC3=O)CC2)c1 (centres unmarked) [Example 644, 2-((2-chloro-5-cyano-3-(1-(2-oxocyclobutyl)piperidin-4-yl)phenyl)amino)-4-(cyclopropylamino)imidazo[2,1-f][1,2,4]triazine-7-carbonitrile] | 0.85
10 | CN1CCC(N2CC(O)(c3cc(C#N)cc(Nc4nc(NC5CC5)c5ncc(C#N)n5n4)c3Cl)C2)CC1 [Example 647, 2-((2-chloro-5-cyano-3-(3-hydroxy-1-(1-methylpiperidin-4-yl)azetidin-3-yl)phenyl)amino)-4-(cyclopropylamino)imidazo[2,1-f][1,2,4]triazine-7-carbonitrile] | 1.94
11 | N#Cc1cc(Nc2nc(NC3CC3)c3ncc(C#N)n3n2)c(Cl)c(C2(O)CCN(C3COC3)CC2)c1 [Example 648, 2-((2-chloro-5-cyano-3-(4-hydroxy-1-(oxetan-3-yl)piperidin-4-yl)phenyl)amino)-4-(cyclopropylamino)imidazo[2,1-f][1,2,4]triazine-7-carbonitrile] | 0.85
12 | CN1CCC(O)(c2cc(C#N)cc(Nc3nc(NC4CC4)c4ncc(C#N)n4n3)c2Cl)CC1 [Example 649, 2-((2-chloro-5-cyano-3-(4-hydroxy-1-methylpiperidin-4-yl)phenyl)amino)-4-(cyclopropylamino)imidazo[2,1-f][1,2,4]triazine-7-carbonitrile] | 1.01
13 | CC(=O)N1CC(N2CCC(O)(c3cc(C#N)cc(Nc4nc(NC5CC5)c5ncc(C#N)n5n4)c3Cl)CC2)C1 [Example 650, 2-((3-(1-(1-acetylazetidin-3-yl)-4-hydroxypiperidin-4-yl)-2-chloro-5-cyanophenyl)amino)-4-(cyclopropylamino)imidazo[2,1-f][1,2,4]triazine-7-carbonitrile] | 1.09
14 | N#Cc1cc(Nc2nc(NC3CC3)c3ncc(C#N)n3n2)c(Cl)c(C2(O)CCNC2)c1 (centres unmarked) [Example 651, 2-((2-chloro-5-cyano-3-(3-hydroxypyrrolidin-3-yl)phenyl)amino)-4-(cyclopropylamino)imidazo[2,1-f][1,2,4]triazine-7-carbonitrile] | 1.51
15 | N#Cc1cc(Nc2nc(NC3CC3)c3ncc(C#N)n3n2)c(Cl)c(C2(O)CCN(C3COC3)C2)c1 (centres unmarked) [Example 652, 2-((2-chloro-5-cyano-3-(3-hydroxy-1-(oxetan-3-yl)pyrrolidin-3-yl)phenyl)amino)-4-(cyclopropylamino)imidazo[2,1-f][1,2,4]triazine-7-carbonitrile] | 0.83
16 | N#Cc1cc(Nc2nc(NC3CC3)c3ncc(C#N)n3n2)c(Cl)c(C2(O)COC2)c1 [Example 653, 2-((2-chloro-5-cyano-3-(3-hydroxyoxetan-3-yl)phenyl)amino)-4-(cyclopropylamino)imidazo[2,1-f][1,2,4]triazine-7-carbonitrile] | 1.84
17 | N#Cc1cc(Nc2nc(NC3CC3)c3ncc(C#N)n3n2)c(Cl)c(C(O)C2CCNCC2)c1 (centres unmarked) [Example 654, 2-((2-chloro-5-cyano-3-(hydroxy(piperidin-4-yl)methyl)phenyl)amino)-4-(cyclopropylamino)imidazo[2,1-f][1,2,4]triazine-7-carbonitrile] | 2.68
18 | N#Cc1cc(Nc2nc(NC3CC3)c3ncc(C#N)n3n2)c(Cl)c(C(O)C2CCN(C3COC3)CC2)c1 (centres unmarked) [Example 655, 2-((2-chloro-5-cyano-3-(hydroxy(1-(oxetan-3-yl)piperidin-4-yl)methyl)phenyl)amino)-4-(cyclopropylamino)imidazo[2,1-f][1,2,4]triazine-7-carbonitrile] | 2.82
19 | N#Cc1cc(Nc2nc(NC3CC3)c3ncc(C#N)n3n2)c(Cl)c(C(O)C2CN(C3COC3)C2)c1 (centres unmarked) [Example 656, 2-((2-chloro-5-cyano-3-(hydroxy(1-(oxetan-3-yl)azetidin-3-yl)methyl)phenyl)amino)-4-(cyclopropylamino)imidazo[2,1-f][1,2,4]triazine-7-carbonitrile] | 6.73
20 | CC1(C(O)c2cc(C#N)cc(Nc3nc(NC4CC4)c4ncc(C#N)n4n3)c2Cl)COC1 (centres unmarked) [Example 657, 2-((2-chloro-5-cyano-3-(hydroxy(3-methyloxetan-3-yl)methyl)phenyl)amino)-4-(cyclopropylamino)imidazo[2,1-f][1,2,4]triazine-7-carbonitrile] | 4.2

Reference: US9273057B2 (Bristol-Myers Squibb Company, priority 2012, dated 2016)
